In patent publication US11480583B2, “Method for the diagnosis and treatment of essential primary hypertension” (Universiteit Maastricht, priority 2020, dated 2022):
Entries after “also recorded” stand apart in the source; their conditions may differ. Values belong to the compound of their own block, whether it stands above or below them.

Assays:
elevated blood pressure = details: by improving endothelial function; cited from earlier work
[1] = tested on: saphenous arteries of aged NOX5 KI and WT mice; assay: Wire myograph, relaxing responses of isolated saphenous arteries; set-up: species or system mouse; details: for Endothelium-independent relaxation induced by PAPA/NO, WT versus KI: saphenous arteries, 0.01-10 μM
Procedure: (§1) After mice were sacrificed, thoracic aortae, femoral and saphenous arteries were dissected free from perivascular adipose tissue and mounted in a wire myograph (DMT, Aarhus, DK). The organ chamber was filled with Krebs-Ringer bicarbonate-buffered salt solution (KRB) that was continuously aerated with 95% O2/5% CO2 and maintained at 37° C. Passive stretch procedure was performed to mimic the physiologically relevant internal lumen diameter as previously described. Arterial contractile and relaxing responses were recorded at lumen diameters corresponding to a distending pressure of 100 mmHg in thoracic aorta and femoral artery and at 90% of this diameter in the resistance-sized saphenous artery. […] The diameter tension relationships were constructed according to the law of Laplace for a cylindrical tube: P=T/R (with P for transmural pressure, T for wall tension and R for the lumen radius of the tube). Consequently, wall stiffness can be determined equally by recording 1) changes in tension in response to imposed changes in radius (wire myography) or 2) changes in radius in response to changes in transmural pressure (pressure myography). Here we used the former approach because it has a higher throughput than the latter. Stress-strain relationships and even better “incremental elastic (Young's) modulus” (which require additional recording of wall thickness) only come into play to discriminate between structural and material property contributions to changes in arterial stiffness. Part of the isolated thoracic aorta was studied in the absence and part in the continuous presence of 10 μM indomethacin to inhibit production of prostaglandins that can act as endothelium-derived vasoactive factors in this vessel. […] The wall tension of the vessel segment was continuously recorded with LabChart Pro (ADInstruments, Oxford, UK).

[2] = tested on: femoral arteries of aged NOX5 KI and WT mice; assay: Wire myograph, relaxing responses of isolated femoral arteries; set-up: species or system mouse; details: for Endothelium-independent relaxation induced by PAPA/NO, WT versus KI / Relaxation induced by BAY 60-2770, WT versus KI: femoral arteries, 0.01-10 μM; for Reversal of impaired Ach-induced relaxation by antioxidant: femoral arteries of aged KI mice contracted with 10 μM phenylephrine, Ach 10 μM
Procedure: After mice were sacrificed, thoracic aortae, femoral and saphenous arteries were dissected free from perivascular adipose tissue and mounted in a wire myograph (DMT, Aarhus, DK). The organ chamber was filled with Krebs-Ringer bicarbonate-buffered salt solution (KRB) that was continuously aerated with 95% O2/5% CO2 and maintained at 37° C. Passive stretch procedure was performed to mimic the physiologically relevant internal lumen diameter as previously described. Arterial contractile and relaxing responses were recorded at lumen diameters corresponding to a distending pressure of 100 mmHg in thoracic aorta and femoral artery and at 90% of this diameter in the resistance-sized saphenous artery. […] The diameter tension relationships were constructed according to the law of Laplace for a cylindrical tube: P=T/R (with P for transmural pressure, T for wall tension and R for the lumen radius of the tube). Consequently, wall stiffness can be determined equally by recording 1) changes in tension in response to imposed changes in radius (wire myography) or 2) changes in radius in response to changes in transmural pressure (pressure myography). Here we used the former approach because it has a higher throughput than the latter. Stress-strain relationships and even better “incremental elastic (Young's) modulus” (which require additional recording of wall thickness) only come into play to discriminate between structural and material property contributions to changes in arterial stiffness. Part of the isolated thoracic aorta was studied in the absence and part in the continuous presence of 10 μM indomethacin to inhibit production of prostaglandins that can act as endothelium-derived vasoactive factors in this vessel. The vessels were tested for their contractile response to 40 mM K+, concentration-response curves of phenylephrine (0.01 to 100 μM) and endothelin-1 (1-256 nM) followed by acetylcholine (Ach) (0.01 to 100 μM), PAPA/NO (0.01-10 μM) or Bay60-2770 (0.01-10 μM)-induced relaxations. The wall tension of the vessel segment was continuously recorded with LabChart Pro (ADInstruments, Oxford, UK).

[3] = tested on: thoracic aortae of aged NOX5 KI and WT mice; assay: Wire myograph, responses of isolated thoracic aortae; set-up: species or system mouse; details: for Endothelium-independent relaxation induced by PAPA/NO, WT versus KI: thoracic aortae with/without indomethacin, 0.01-10 μM
Procedure: as §1

[4] = tested on: elevated blood pressure induced by NOS uncoupling; details: cited from earlier work
[5] = tested on: femoral arteries of aged NOX5 KI mice; assay: Superoxide formation, DHE staining of femoral artery cryo-sections; set-up: species or system mouse; details: pre-treatment with 500 μM L-NAME for 30 min at 37° C.
Procedure: Superoxide was measured in femoral arteries using the florescence dye dihydroethidium (DHE) (Thermo Scientific Technology, The Netherlands). Frozen femoral arteries cryo-sections were fixated in 4% paraformaldehyde (PFA) in PBS and then incubated with 2 μM DHE for 30 minutes at 37° C. After three washing steps with PBS, slices were incubated with DAPI (Sigma-Aldrich, The Netherlands) […] for 10 min. Sections were washed in PBS and then mounted using a Dako Fluorescence Mounting Medium ([…], Agilent Technologies). Immunofluorescent signals were viewed using a Leica DM13000 B fluorescence microscope. Some arteries were pre-treated with 500 μM L-NAME for 30 min at 37° C. before performing the DHE staining.

SMILES: Nc1nc2ncc(CNc3ccc(C(=O)N[C@@H](CCC(=O)O)C(=O)O)cc3)nc2c(=O)[nH]1 [folic acid]
- Reduction of elevated blood pressure, clinical (elevated blood pressure): clinically effective to reduce elevated blood pressure

- Endothelium-independent relaxation induced by PAPA/NO, WT versus KI ([1]; listed as PAPA NO): did not differ
- Endothelium-independent relaxation induced by PAPA/NO, WT versus KI ([2]; listed as PAPA NO): did not differ
SMILES: CCCN(CCCN)/[N+]([O-])=N/O [PAPA/NO]
- Endothelium-independent relaxation induced by PAPA/NO, WT versus KI [1]: Neither the PAPA/NO (FIGS. 13 A-C) nor the BAY 60-2770 response (FIG. 11 D) differed between WT and KI mice
- Endothelium-independent relaxation induced by PAPA/NO, WT versus KI [2]: Neither the PAPA/NO (FIGS. 13 A-C) nor the BAY 60-2770 response (FIG. 11 D) differed between WT and KI mice
- Endothelium-independent relaxation induced by PAPA/NO, WT versus KI [3]: Neither the PAPA/NO (FIGS. 13 A-C) nor the BAY 60-2770 response (FIG. 11 D) differed between WT and KI mice
- Endothelium-independent relaxation induced by PAPA/NO, WT versus KI ([3]; listed as PAPA NO): did not differ

SMILES: C[C@H](O)C(=O)C1=Nc2c(nc(N)[nH]c2=O)NC1 [sepiapterin]
- Blood pressure lowering, preclinical [4]: lower elevated blood pressure induced by NOS uncoupling
- Ach-induced relaxation after pre-treatment with sepiapterin ([2]; femoral arteries of aged KI mice pre-contracted with phenylephrine, sepiapterin 100 μM, compared with WT): improved relaxation in KI; also recorded: greatly improved and became indistinguishable from those in WT

SMILES: CC1(C)CC(O)CC(C)(C)N1[O] [tempol]
- Reversal of impaired Ach-induced relaxation by antioxidant ([2]; 100 μM tempol): not reversed

- Relaxation induced by BAY 60-2770, WT versus KI ([2]; listed as Bay60-2770): did not differ
SMILES: O=C(O)CCCCN(CCc1cc(F)ccc1OCc1ccc(-c2ccc(C(F)(F)F)cc2)cc1)Cc1ccc(C(=O)O)cc1 [BAY 60-2770]
- Relaxation induced by BAY 60-2770, WT versus KI [2]: Neither the PAPA/NO (FIGS. 13 A-C) nor the BAY 60-2770 response (FIG. 11 D) differed between WT and KI mice

SMILES: CC(=O)N[C@@H](CS)C(=O)O [N-acetylcysteine]
- Reversal of impaired Ach-induced relaxation by antioxidant ([2]; 10 μM N-acetylcysteine): not reversed

SMILES: COC(=O)[C@@H](N)CCCNC(=N)N[N+](=O)[O-] [L-NAME]
- Effect of L-NAME on Ach-induced relaxation ([1]; saphenous arteries of aged KI and WT mice contracted with endothelin-1, 100 μM L-NAME): did not modify the relaxing effects of Ach
- Effect of L-NAME on Ach-induced relaxation ([2]; femoral arteries of aged KI and WT mice contracted with 256 nM endothelin-1, 100 μM L-NAME): reversed
- Effect of L-NAME on Ach-induced relaxation ([3]; thoracic aortae of aged KI and WT mice contracted with 256 nM endothelin-1, 100 μM L-NAME): reversed
- Superoxide formation (DHE staining), increase in KI versus WT [5]: inhibited
